# Tested on: 843126-344-R-J1-PDC complex spheroid viability
# Assay: Anticancer human tumor 843126-344-R-J1-PDC patient-derived melanoma cell line growth inhibition [POLQ]
# Details: for IC50: curve of first compound; for viability, T/C: stronger effect = lower value
# Summary of the method: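 Complex spheroid viability model combining PDC tumour cells with endothelial (HUVEC) and MSC stromal cells. Novobiocin, ART-558 or RP6685 were tested singly and in combination with standard and investigational anticancer drugs. Each was titrated in half-log steps from near clinical Cmax, or from 10 microM where Cmax was unknown.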
# [1] = second compound 0.0316 µM, first compound 0.0316 µM
# [2] = second compound 0.0316 µM, first compound 0.1 µM
# [3] = second compound 0.0316 µM, first compound 0.316 µM
# [4] = second compound 0.0316 µM, first compound 1 µM
# [5] = second compound 0.0316 µM, first compound 3.16 µM
# [6] = second compound 0.0316 µM, first compound 10 µM
# [7] = second compound 0.1 µM, first compound 0.0316 µM
# [8] = second compound 0.1 µM, first compound 0.1 µM
# [9] = second compound 0.1 µM, first compound 0.316 µM
# [10] = second compound 0.1 µM, first compound 1 µM
# [11] = second compound 0.1 µM, first compound 3.16 µM
# [12] = second compound 0.1 µM, first compound 10 µM
# [13] = second compound 0.316 µM, first compound 0.0316 µM
# [14] = second compound 0.316 µM, first compound 0.1 µM
# [15] = second compound 0.316 µM, first compound 0.316 µM
# [16] = second compound 0.316 µM, first compound 1 µM
# [17] = second compound 0.316 µM, first compound 3.16 µM
# [18] = second compound 0.316 µM, first compound 10 µM
# [19] = second compound 1 µM, first compound 0.0316 µM
# [20] = second compound 1 µM, first compound 0.1 µM
# [21] = second compound 1 µM, first compound 0.316 µM
# [22] = second compound 1 µM, first compound 1 µM
# [23] = second compound 1 µM, first compound 3.16 µM
# [24] = second compound 1 µM, first compound 10 µM
# [25] = second compound 3.16 µM, first compound 0.0316 µM
# [26] = second compound 3.16 µM, first compound 0.1 µM
# [27] = second compound 3.16 µM, first compound 0.316 µM
# [28] = second compound 3.16 µM, first compound 1 µM
# [29] = second compound 3.16 µM, first compound 3.16 µM
# [30] = second compound 3.16 µM, first compound 10 µM
# [31] = second compound 10 µM, first compound 0.0316 µM
# [32] = second compound 10 µM, first compound 0.1 µM
# [33] = second compound 10 µM, first compound 0.316 µM
# [34] = second compound 10 µM, first compound 1 µM
# [35] = second compound 10 µM, first compound 3.16 µM
# [36] = second compound 10 µM, first compound 10 µM
# 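For viability, T/C in this document: spheroids exposed to drugs for seven days before readout.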
compound,measurement,setting,value
CCCS(=O)(=O)Nc1ccc(F)c(C(=O)c2c[nH]c3ncc(-c4ccc(Cl)cc4)cc23)c1F + Nc1ccc(C#CCN(C(=O)Cc2ncc(C(F)(F)F)cc2C(F)(F)F)c2ccc(F)cc2)nn1,IC50,second compound 0.0316 µM,> 10 µM
same,IC50,second compound 0.1 µM,> 10 µM
same,IC50,second compound 0.316 µM,> 10 µM
same,IC50,second compound 1 µM,> 10 µM
same,IC50,second compound 3.16 µM,> 10 µM
same,IC50,second compound 10 µM,> 10 µM
same,"viability, T/C",[1],86%
same,"viability, T/C",[2],92.7%
same,"viability, T/C",[3],98.9%
same,"viability, T/C",[4],77.9%
same,"viability, T/C",[5],77.5%
same,"viability, T/C",[6],86.7%
same,"viability, T/C",[7],82%
same,"viability, T/C",[8],91.8%
same,"viability, T/C",[9],82.8%
same,"viability, T/C",[10],82.3%
same,"viability, T/C",[11],78.1%
same,"viability, T/C",[12],57.4%
same,"viability, T/C",[13],85.8%
same,"viability, T/C",[14],92.8%
same,"viability, T/C",[15],88.9%
same,"viability, T/C",[16],87.4%
same,"viability, T/C",[17],77.5%
same,"viability, T/C",[18],82%
same,"viability, T/C",[19],93.5%
same,"viability, T/C",[20],91.8%
same,"viability, T/C",[21],71%
same,"viability, T/C",[22],85.5%
same,"viability, T/C",[23],77.2%
same,"viability, T/C",[24],76.2%
same,"viability, T/C",[25],86.4%
same,"viability, T/C",[26],105%
same,"viability, T/C",[27],95.2%
same,"viability, T/C",[28],78%
same,"viability, T/C",[29],62.7%
same,"viability, T/C",[30],63.4%
same,"viability, T/C",[31],93.3%
same,"viability, T/C",[32],79.9%
same,"viability, T/C",[33],79.7%
same,"viability, T/C",[34],82.3%
same,"viability, T/C",[35],74%
same,"viability, T/C",[36],75.4%
C=CCn1c(=O)c2cnc(Nc3ccc(N4CCN(C)CC4)cc3)nc2n1-c1cccc(C(C)(C)O)n1 + Nc1ccc(C#CCN(C(=O)Cc2ncc(C(F)(F)F)cc2C(F)(F)F)c2ccc(F)cc2)nn1,IC50,second compound 0.0316 µM,> 1 µM
same,IC50,second compound 0.1 µM,> 1 µM
same,IC50,second compound 0.316 µM,> 1 µM
same,IC50,second compound 1 µM,> 1 µM
same,IC50,second compound 3.16 µM,> 1 µM
same,IC50,second compound 10 µM,> 1 µM
same,"viability, T/C","second compound 0.0316 µM, first compound 0.00316 µM",93.9%
same,"viability, T/C","second compound 0.0316 µM, first compound 0.01 µM",81.2%
same,"viability, T/C",[1],98.9%
same,"viability, T/C",[2],110%
same,"viability, T/C",[3],101%
same,"viability, T/C",[4],81.9%
same,"viability, T/C","second compound 0.1 µM, first compound 0.00316 µM",91.9%
same,"viability, T/C","second compound 0.1 µM, first compound 0.01 µM",92.1%
same,"viability, T/C",[7],104%
same,"viability, T/C",[8],85.9%
same,"viability, T/C",[9],86.5%
same,"viability, T/C",[10],77.6%
same,"viability, T/C","second compound 0.316 µM, first compound 0.00316 µM",95.1%
same,"viability, T/C","second compound 0.316 µM, first compound 0.01 µM",90.7%
same,"viability, T/C",[13],98.8%
same,"viability, T/C",[14],105%
same,"viability, T/C",[15],93.6%
same,"viability, T/C",[16],72%
same,"viability, T/C","second compound 1 µM, first compound 0.00316 µM",106%
same,"viability, T/C","second compound 1 µM, first compound 0.01 µM",80.8%
same,"viability, T/C",[19],87.7%
same,"viability, T/C",[20],90.4%
same,"viability, T/C",[21],85.4%
same,"viability, T/C",[22],86.4%
same,"viability, T/C","second compound 3.16 µM, first compound 0.00316 µM",91.2%
same,"viability, T/C","second compound 3.16 µM, first compound 0.01 µM",84.2%
same,"viability, T/C",[25],92.5%
same,"viability, T/C",[26],106%
same,"viability, T/C",[27],75%
same,"viability, T/C",[28],59.8%
same,"viability, T/C","second compound 10 µM, first compound 0.00316 µM",94.1%
same,"viability, T/C","second compound 10 µM, first compound 0.01 µM",83.7%
same,"viability, T/C",[31],84.5%
same,"viability, T/C",[32],91.9%
same,"viability, T/C",[33],79.1%
same,"viability, T/C",[34],74.5%
CNCc1ccc(-c2[nH]c3cc(F)cc4c3c2CCNC4=O)cc1 + COC1C(OC(N)=O)C(O)C(Oc2ccc3c(O)c(NC(=O)c4ccc(O)c(CC=C(C)C)c4)c(=O)oc3c2C)OC1(C)C,IC50,second compound 0.0316 µM,> 10 µM
same,IC50,second compound 0.1 µM,> 10 µM
same,IC50,second compound 0.316 µM,> 10 µM
same,IC50,second compound 1 µM,> 10 µM
same,IC50,second compound 3.16 µM,> 10 µM
same,IC50,second compound 10 µM,> 10 µM
same,"viability, T/C",[1],84.8%
same,"viability, T/C",[2],94%
same,"viability, T/C",[3],98.3%
same,"viability, T/C",[4],92.3%
same,"viability, T/C",[5],86.8%
same,"viability, T/C",[6],87%
same,"viability, T/C",[7],88%
same,"viability, T/C",[8],102%
same,"viability, T/C",[9],115%
same,"viability, T/C",[10],94.3%
same,"viability, T/C",[11],99.7%
same,"viability, T/C",[12],87.1%
same,"viability, T/C",[13],98.7%
same,"viability, T/C",[14],88.6%
same,"viability, T/C",[15],90.7%
same,"viability, T/C",[16],96.1%
same,"viability, T/C",[17],108%
same,"viability, T/C",[18],70.5%
same,"viability, T/C",[19],109%
same,"viability, T/C",[20],98.6%
same,"viability, T/C",[21],97.8%
same,"viability, T/C",[22],95.8%
same,"viability, T/C",[23],90.5%
same,"viability, T/C",[24],74.6%
same,"viability, T/C",[25],99.9%
same,"viability, T/C",[26],96.9%
same,"viability, T/C",[27],92%
same,"viability, T/C",[28],101%
same,"viability, T/C",[29],82.2%
same,"viability, T/C",[30],85.4%
same,"viability, T/C",[31],78.6%
same,"viability, T/C",[32],97%
same,"viability, T/C",[33],81%
same,"viability, T/C",[34],100%
same,"viability, T/C",[35],85.9%
same,"viability, T/C",[36],100%

# Source: PubChem BioAssay AID1963837 (Molecular Pharmacology Branch, DTP, NCI, 2024)
